According to patent US20230085307A1, “PYRIDAZINONE COMPOUND AND HERBICIDE” (NISSAN CHEMICAL CORPORATION, priority 2019, published 2023):

Columns and labels:
[1] = tested on: Japanese bulrush; experiment: Test Example 1: herbicidal activity, application before weed generation under submerged conditions (Table 16, symbol B); format: in vivo, Japanese bulrush (Schoenoplectus juncoides); conditions: 320 g/ha applied herbicide
Procedure, shortened: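 Submerged Wagner pots (alluvial soil, 4 cm water) sown with weed seeds and planted with 2.5-leaf rice seedlings; emulsifiable concentrate diluted in water applied to water surface on sowing day. Held in greenhouse at 25-30 °C; injury scored 0-5 by herbicidal rate after three weeks.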

[2] = tested on: late watergrass; experiment: Test Example 2: herbicidal activity, application during weed generation under submerged conditions (Table 17, symbol A); format: in vivo, late watergrass (Echinochloa oryzicola); conditions: AAH 320 g/ha; application during weed generation, submerged conditions
Procedure, shortened: (§1)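 Effect on each weed is rated three weeks post-treatment, using the same scoring criteria as the preceding test. Plants grow from mixed-sown seed in flooded alluvial soil (4 cm water) at 25° C. to 30° C., and are treated at one to two leaves with diluted emulsion dropped onto the water.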

[3] = tested on: oval-leafed pondweed; experiment: Test Example 2: herbicidal activity, application during weed generation under submerged conditions (Table 17, symbol C); format: in vivo, oval-leafed pondweed (Monochoria vaginalis); conditions: AAH 320 g/ha; application during weed generation, submerged conditions
Procedure, shortened: as §1

[4] = tested on: Chinese sprangletop; experiment: Test Example 3: herbicidal effect by foliage application, Wagner pot (Table 18, symbol D); format: in vivo, chinese sprangletop (Leptochloa chinensis); conditions: for herbicidal effect on D (Chinese sprangletop), rating 0-5: 320 g/ha
Procedure, shortened: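 Plants were sown in alluvial soil held under 0.1–0.5 cm standing water and grown 14 days in a greenhouse at 25–30 °C. An emulsifiable formulation, water-diluted to the set dose, was then sprayed onto the foliage, and effects were scored three weeks later using previously defined criteria.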

[5] = tested on: southern crabgrass; experiment: Test Example 4: herbicidal effect by soil treatment (Table 19, symbol F); format: in vivo, southern crabgrass (Digitaria ciliaris)
Procedure, shortened: (§2)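 Scoring uses the grading scale of an earlier test, three weeks post-application. Treatment consists of spraying a diluted emulsion formulation across the surface of sterilized diluvial soil in which seeds are buried near 1.5 cm deep; boxes are kept in a greenhouse between 25° C. and 30° C.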

[6] = tested on: wild oat; experiment: Test Example 4: herbicidal effect by soil treatment (Table 19, symbol I); format: in vivo, wild oat (Avena fatua)
Procedure, shortened: as §2

[7] = tested on: blackgrass; experiment: Test Example 4: herbicidal effect by soil treatment (Table 19, symbol J); format: in vivo, blackgrass (Alopecurus myosuroides); conditions: for herbicidal effect rating, J: blackgrass: amount of applied herbicide 320 g/ha
Procedure, shortened: as §2

[8] = tested on: Italian ryegrass; experiment: Test Example 4: herbicidal effect by soil treatment (Table 19, symbol K); format: in vivo, Italian ryegrass (Lolium multiflorum)
Procedure, shortened: as §2

[9] = tested on: lambsquarters; experiment: Test Example 4: herbicidal effect by soil treatment (Table 19, symbol O); format: in vivo, lambsquarters (Chenopodium album)
Procedure, shortened: as §2

[10] = tested on: green foxtail; experiment: Test Example 5: herbicidal effect by foliage application, plastic box (Table 20, symbol G); format: in vivo, green foxtail (Setaria viridis); conditions: foliage application; for herbicidal effect grade, G: green foxtail: three weeks after application
Procedure, shortened: (§3)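 Post-emergence foliar test in sterilized diluvial soil. Compound applied as water-diluted emulsion at a predetermined rate to 14-day-old plants; evaluation at three weeks.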

[11] = tested on: Italian ryegrass; experiment: Test Example 5: herbicidal effect by foliage application, plastic box (Table 20, symbol K); format: in vivo, Italian ryegrass (Lolium multiflorum); conditions: foliage application; for herbicidal effect grade, K: Italian ryegrass: three weeks after application
Procedure, shortened: as §3

[12] = tested on: velvetleaf; experiment: Test Example 5: herbicidal effect by foliage application, plastic box (Table 20, symbol M); format: in vivo, velvetleaf (Abutilon theophrasti); conditions: foliage application; for herbicidal effect grade, M: velvetleaf: three weeks after application
Procedure, shortened: as §3

[13] = tested on: lambsquarters; experiment: Test Example 5: herbicidal effect by foliage application, plastic box (Table 20, symbol O); format: in vivo, lambsquarters (Chenopodium album); conditions: foliage application; for herbicidal effect grade, O: lambsquarters: three weeks after application
Procedure, shortened: as §3

[14] = tested on: windgrass; experiment: Test Example 4: herbicidal effect by soil treatment (Table 19, symbol L); format: in vivo, windgrass (Apera spica-venti); conditions: amount of applied herbicide 320 g/ha
Procedure, shortened: as §2

[15] = tested on: redroot pigweed; experiment: Test Example 5: herbicidal effect by foliage application, plastic box (Table 20, symbol N); format: in vivo, redroot pigweed (Amaranthus retroflexus); conditions: foliage application; for herbicidal effect grade, N: redroot pigweed: 320 g/ha, three weeks after application
Procedure, shortened: as §3

[16] = tested on: chickweed; experiment: Test Example 5: herbicidal effect by foliage application, plastic box (Table 20, symbol P); format: in vivo, common chickweed (Stellaria media); conditions: foliage application; for herbicidal effect grade, P: chickweed: 320 g/ha, three weeks after application
Procedure, shortened: as §3

[17] = 320 g/ha, 3 weeks after application
[18] = amount of applied herbicide 320 g/ha
[19] = AAH 320 g/ha, evaluated three weeks after application

SMILES | Herbicidal effect on B: Japanese bulrush (grade 0-5) [1] | herbicidal effect rating, A: late watergrass [2] | herbicidal effect rating, C: oval-leafed pondweed [3] | herbicidal effect on D (Chinese sprangletop), rating 0-5 [4] | herbicidal effect rating, F: southern crabgrass [5, 18] | herbicidal effect rating, I: wild oat [6, 18] | herbicidal effect rating, J: blackgrass [7] | herbicidal effect rating, K: Italian ryegrass [8, 18] | herbicidal effect rating, O: lambsquarters [9, 18] | herbicidal effect grade, G: green foxtail ([10]; 320 g/ha) | herbicidal effect grade, K: Italian ryegrass ([11]; 320 g/ha) | herbicidal effect grade, M: velvetleaf ([12]; 320 g/ha) | herbicidal effect grade, N: redroot pigweed [15] | herbicidal effect grade, O: lambsquarters ([13]; 320 g/ha) | herbicidal effect grade, P: chickweed [16] | further results
COCC(C)Oc1ccc(-c2sc3ccccc3c2-c2c(O)c(C)nn(C)c2=O)cc1 (racemic) [1-228] | 5 (Herbicidal rate of 90% or more (almost completely withered)) | 5 (Herbicidal rate of 90% or more (almost completely withered)) | 3 (Herbicidal rate of 40% or more and less than 70%) | 5 (Herbicidal rate of 90% or more (almost completely withered)) | – | – | – | – | – | – | – | – | – | – | – | F: southern crabgrass, herbicidal effect rating ([5]; AAH 320 g/ha): 4 (Herbicidal rate of 70% or more and less than 90%); I: wild oat, herbicidal effect rating ([6]; AAH 320 g/ha): 0 (Herbicidal rate of 5% or less (almost no effect)); J: blackgrass, herbicidal effect rating ([7]; AAH 320 g/ha): 4 (Herbicidal rate of 70% or more and less than 90%); K: Italian ryegrass, herbicidal effect rating ([8]; AAH 320 g/ha): 4 (Herbicidal rate of 70% or more and less than 90%); O: lambsquarters, herbicidal effect rating ([9]; AAH 320 g/ha): 5 (Herbicidal rate of 90% or more (almost completely withered)); effect on green foxtail (G) [10, 17]: 5 (Herbicidal rate of 90% or more (almost completely withered)); effect on Italian ryegrass (K) [11, 17]: 4 (Herbicidal rate of 70% or more and less than 90%); effect on velvetleaf (M) [12, 17]: 5 (Herbicidal rate of 90% or more (almost completely withered)); effect on lambsquarters (O) [13, 17]: 5 (Herbicidal rate of 90% or more (almost completely withered))
CCCCCOc1ccc(-c2sc3ccccc3c2-c2c(O)c(C)nn(C)c2=O)cc1 [1-026] | 2 (Herbicidal rate of 20% or more and less than 40%) | 2 (Herbicidal rate of 20% or more and less than 40%) | – | 1 (Herbicidal rate of 5% or more and less than 20%) | 0 (Herbicidal rate of 5% or less (almost no effect)) | 0 (Herbicidal rate of 5% or less (almost no effect)) | 0 (Herbicidal rate of 5% or less (almost no effect)) | 0 (Herbicidal rate of 5% or less (almost no effect)) | 0 (Herbicidal rate of 5% or less (almost no effect)) | 5 (Herbicidal rate of 90% or more (almost completely withered)) | 2 (Herbicidal rate of 20% or more and less than 40%) | 5 (Herbicidal rate of 90% or more (almost completely withered)) | 5 (Herbicidal rate of 90% or more (almost completely withered)) | 0 (Herbicidal rate of 5% or less (almost no effect)) | 5 (Herbicidal rate of 90% or more (almost completely withered)) | herbicidal effect rating, L: windgrass [14]: 0 (Herbicidal rate of 5% or less (almost no effect))
CC(=O)c1ccc(-c2sc3ccccc3c2-c2c(O)c(C)nn(C)c2=O)cc1 [1-041] | 4 (Herbicidal rate of 70% or more and less than 90%) | 0 (Herbicidal rate of 5% or less (almost no effect)) | 3 (Herbicidal rate of 40% or more and less than 70%) | 4 (Herbicidal rate of 70% or more and less than 90%) | 2 (Herbicidal rate of 20% or more and less than 40%) | 1 (Herbicidal rate of 5% or more and less than 20%) | 0 (Herbicidal rate of 5% or less (almost no effect)) | 5 (Herbicidal rate of 90% or more (almost completely withered)) | 5 (Herbicidal rate of 90% or more (almost completely withered)) | 1 (Herbicidal rate of 5% or more and less than 20%) | 5 (Herbicidal rate of 90% or more (almost completely withered)) | 5 (Herbicidal rate of 90% or more (almost completely withered)) | 5 (Herbicidal rate of 90% or more (almost completely withered)) | 3 (Herbicidal rate of 40% or more and less than 70%) | 5 (Herbicidal rate of 90% or more (almost completely withered)) | –
Cc1cc(-c2sc3ccccc3c2-c2c(O)c(C)nn(C)c2=O)ccc1F [1-051] | 0 (Herbicidal rate of 5% or less (almost no effect)) | 2 (Herbicidal rate of 20% or more and less than 40%) | 0 (Herbicidal rate of 5% or less (almost no effect)) | 0 (Herbicidal rate of 5% or less (almost no effect)) | 4 (Herbicidal rate of 70% or more and less than 90%) | 0 (Herbicidal rate of 5% or less (almost no effect)) | 0 (Herbicidal rate of 5% or less (almost no effect)) | 3 (Herbicidal rate of 40% or more and less than 70%) | 4 (Herbicidal rate of 70% or more and less than 90%) | 5 (Herbicidal rate of 90% or more (almost completely withered)) | 3 (Herbicidal rate of 40% or more and less than 70%) | 5 (Herbicidal rate of 90% or more (almost completely withered)) | 5 (Herbicidal rate of 90% or more (almost completely withered)) | 3 (Herbicidal rate of 40% or more and less than 70%) | 5 (Herbicidal rate of 90% or more (almost completely withered)) | –
Cc1nn(C)c(=O)c(-c2c(-c3ccc(OC(F)F)cc3)sc3ccc(F)cc23)c1OC(=O)c1ccco1 [2-287] | 4 (Herbicidal rate of 70% or more and less than 90%) | 3 (Herbicidal rate of 40% or more and less than 70%) | 4 (Herbicidal rate of 70% or more and less than 90%) | – | – | – | – | – | – | – | – | – | – | – | – | herbicidal effect on D: Chinese sprangletop [4, 18]: 3 (Herbicidal rate of 40% or more and less than 70%); herbicidal effect on F: southern crabgrass [5, 18]: 4 (Herbicidal rate of 70% or more and less than 90%); herbicidal effect on I: wild oat [6, 18]: 0 (Herbicidal rate of 5% or less (almost no effect)); herbicidal effect on K: Italian ryegrass [8, 18]: 5 (Herbicidal rate of 90% or more (almost completely withered)); herbicidal effect on L: windgrass [14]: 3 (Herbicidal rate of 40% or more and less than 70%); herbicidal effect on O: lambsquarters [9, 18]: 5 (Herbicidal rate of 90% or more (almost completely withered)); G: green foxtail, herbicidal effect (criteria 0-5) [10, 19]: 5 (Herbicidal rate of 90% or more (almost completely withered)); K: Italian ryegrass, herbicidal effect (criteria 0-5) [11, 19]: 5 (Herbicidal rate of 90% or more (almost completely withered)); M: velvetleaf, herbicidal effect (criteria 0-5) [12, 19]: 5 (Herbicidal rate of 90% or more (almost completely withered)); N: redroot pigweed, herbicidal effect (criteria 0-5) [15, 19]: 5 (Herbicidal rate of 90% or more (almost completely withered)); O: lambsquarters, herbicidal effect (criteria 0-5) [13, 19]: 5 (Herbicidal rate of 90% or more (almost completely withered)); P: chickweed, herbicidal effect (criteria 0-5) [16, 19]: 5 (Herbicidal rate of 90% or more (almost completely withered))
